PubChem BioAssay (NCI)
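How tested: cells in 96-well plates exposed to compound for 48 hours at five concentrations. TGI: total growth inhibition.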

Experiments:
Experiment in all cases: inhibition of tumour cell growth, NCI panel, 48 h
[1] = tested on: BT-549 breast
[2] = tested on: SNB-19 CNS
[3] = tested on: TK-10 renal
[4] = tested on: SK-MEL-5 melanoma
[5] = tested on: OVCAR-8 ovarian
[6] = tested on: KM12 colon
[7] = tested on: K-562 leukemia
[8] = tested on: HCC-2998 colon
[9] = tested on: NCI-H522 lung
[10] = tested on: M14 melanoma
[11] = tested on: T-47D breast
[12] = tested on: SK-MEL-28 melanoma
[13] = tested on: MALME-3M melanoma
[14] = tested on: NCI-H460 lung
[15] = tested on: A549 NSCLC
[16] = tested on: SNB-75 CNS
[17] = tested on: NCI/ADR-RES ovarian
[18] = tested on: PC-3 prostate
[19] = tested on: HCT-116 colon
[20] = tested on: SK-OV-3 ovarian

CCOC(=O)c1sc2c(c1O)c(=O)n(-c1ccccc1)c(=S)n2-c1ccccc1
TGI [1]: > 100 µM
TGI [2]: > 100 µM
TGI [3]: > 100 µM
TGI [4]: > 100 µM
TGI [5]: > 100 µM
TGI [6]: > 100 µM
TGI [7]: > 100 µM
TGI [8]: > 100 µM
TGI [9]: > 100 µM
TGI [10]: > 100 µM
TGI [11]: > 100 µM
TGI [12]: > 100 µM
TGI [13]: > 100 µM
TGI [14]: > 100 µM
TGI [15]: > 100 µM
TGI [16]: > 100 µM

CSc1nn(C)cc2nc(C)nc1-2
TGI [1]: > 100 µM
TGI [2]: > 100 µM
TGI [17]: > 100 µM
TGI [3]: > 100 µM
TGI [4]: > 100 µM
TGI [5]: > 100 µM
TGI [6]: > 100 µM
TGI [7]: > 100 µM
TGI [18]: > 100 µM
TGI [10]: > 100 µM
TGI [11]: > 100 µM
TGI [12]: > 100 µM
TGI [14]: > 100 µM
TGI [15]: > 100 µM
TGI [19]: > 100 µM
TGI [16]: > 100 µM

COc1cc(/C=N/c2ccccn2)cc(OC)c1OC
TGI [1]: > 100 µM
TGI [2]: > 100 µM
TGI [17]: > 100 µM
TGI [4]: > 100 µM
TGI [5]: > 100 µM
TGI [6]: > 100 µM
TGI [7]: > 100 µM
TGI [8]: > 100 µM
TGI [9]: > 100 µM
TGI [20]: > 100 µM
TGI [10]: > 100 µM
TGI [11]: > 100 µM
TGI [12]: > 100 µM
TGI [13]: > 100 µM
TGI [14]: > 100 µM
TGI [15]: > 100 µM
TGI [19]: > 100 µM
TGI [16]: > 100 µM

COc1cc(C2c3cc4c(cc3OC(NCCc3ccccc3)C2C)OCO4)cc(OC)c1OC (stereo not given)
TGI [1]: 22.7 µM
TGI [2]: > 100 µM
TGI [17]: > 22.3 µM
TGI [3]: > 100 µM
TGI [4]: 4.82 µM
TGI [5]: > 100 µM
TGI [6]: 4.12 µM
TGI [7]: 16.9 µM
TGI [8]: 0.85 µM
TGI [9]: 0.779 µM
TGI [20]: > 100 µM
TGI [10]: > 47.6 µM
TGI [11]: 66.8 µM
TGI [12]: > 100 µM
TGI [13]: 17.6 µM
TGI [14]: > 52.1 µM
TGI [15]: > 90.4 µM
TGI [19]: 18.6 µM
TGI [16]: 0.488 µM

CC(C)CC1c2[nH]c3ccccc3c2C[C@H]2C(=O)NC(CCCCNC(=O)OC(C)(C)C)C(=O)N12 (stereo not given in full)
TGI [1]: 95.5 µM
TGI [2]: > 100 µM
TGI [17]: > 100 µM
TGI [3]: > 100 µM
TGI [4]: > 100 µM
TGI [5]: > 100 µM
TGI [6]: > 100 µM
TGI [7]: > 100 µM
TGI [18]: 65.5 µM
TGI [9]: 72.3 µM
TGI [10]: > 100 µM
TGI [11]: 16.1 µM
TGI [12]: > 100 µM
TGI [13]: 78.5 µM
TGI [15]: > 100 µM
TGI [19]: > 100 µM

COC(=O)c1cc(NC(=O)c2cc(NC(=O)Cc3c[nH]c4ccccc34)cn2C)cn1C
TGI [1]: > 100 µM
TGI [2]: 85.7 µM
TGI [17]: > 100 µM
TGI [3]: > 100 µM
TGI [4]: 63.8 µM
TGI [5]: > 100 µM
TGI [6]: > 100 µM
TGI [7]: > 100 µM
TGI [18]: 96.2 µM
TGI [20]: > 100 µM
TGI [10]: > 100 µM
TGI [11]: > 100 µM
TGI [12]: > 100 µM
TGI [13]: 77.2 µM
TGI [14]: > 100 µM
TGI [15]: > 100 µM
TGI [19]: 84.1 µM
TGI [16]: 92.9 µM

CCOC(=O)CCC(NC(=O)C(N)c1ccc([N+](=O)[O-])cc1)C(=O)NC(CCC(=O)OCC)C(=O)OCC (stereo not given)
TGI [1]: > 100 µM
TGI [2]: > 100 µM
TGI [3]: > 100 µM
TGI [4]: > 100 µM
TGI [5]: > 100 µM
TGI [6]: > 100 µM
TGI [7]: > 100 µM
TGI [8]: > 100 µM
TGI [18]: > 100 µM
TGI [10]: > 100 µM
TGI [11]: > 100 µM
TGI [12]: > 100 µM
TGI [13]: > 100 µM
TGI [14]: > 100 µM
TGI [15]: > 100 µM
TGI [19]: > 100 µM
TGI [16]: > 100 µM

COc1cccc(C=C2N=C(c3ccccc3)N(n3c(-c4ccccc4)nc4ccccc4c3=O)C2=O)c1
TGI [1]: > 100 µM
TGI [2]: > 100 µM
TGI [3]: > 100 µM
TGI [4]: > 100 µM
TGI [5]: > 100 µM
TGI [6]: > 100 µM
TGI [7]: > 100 µM
TGI [8]: > 100 µM
TGI [18]: > 100 µM
TGI [9]: 62.1 µM
TGI [20]: > 100 µM
TGI [10]: > 100 µM
TGI [11]: > 100 µM
TGI [12]: > 100 µM
TGI [13]: > 100 µM
TGI [14]: > 100 µM
TGI [15]: > 100 µM
TGI [19]: > 100 µM
TGI [16]: > 100 µM

Nc1ncnc2c1ncn2-c1ccc([N+](=O)[O-])cn1
TGI [1]: > 100 µM
TGI [2]: > 100 µM
TGI [17]: > 100 µM
TGI [3]: > 100 µM
TGI [4]: > 100 µM
TGI [5]: > 100 µM
TGI [6]: > 100 µM
TGI [8]: > 100 µM
TGI [20]: > 100 µM
TGI [10]: > 100 µM
TGI [11]: > 100 µM
TGI [12]: > 100 µM
TGI [14]: > 100 µM
TGI [15]: > 100 µM
TGI [19]: > 100 µM
TGI [16]: > 100 µM

NS(=O)(=O)c1nnc(NC(=O)c2cccc([N+](=O)[O-])c2)s1
TGI [1]: > 100 µM
TGI [2]: > 100 µM
TGI [17]: > 100 µM
TGI [3]: > 100 µM
TGI [4]: > 100 µM
TGI [5]: > 100 µM
TGI [6]: > 100 µM
TGI [7]: > 100 µM
TGI [8]: > 100 µM
TGI [9]: > 100 µM
TGI [20]: > 100 µM
TGI [10]: > 100 µM
TGI [11]: > 100 µM
TGI [12]: > 100 µM
TGI [13]: > 100 µM
TGI [14]: > 100 µM
TGI [15]: > 100 µM
TGI [19]: > 100 µM

CCCC(C)NC(=O)c1ccc(N(C)Cc2cnc3nc(N)nc(N)c3n2)cc1 (stereo not given)
TGI [1]: 41.6 µM
TGI [2]: > 100 µM
TGI [17]: > 100 µM
TGI [3]: 86.1 µM
TGI [4]: 37.4 µM
TGI [5]: 75.2 µM
TGI [6]: > 100 µM
TGI [7]: > 100 µM
TGI [18]: > 100 µM
TGI [20]: > 100 µM
TGI [10]: 31.1 µM
TGI [11]: 53.9 µM
TGI [12]: 42.3 µM
TGI [13]: 39.3 µM
TGI [14]: > 100 µM
TGI [19]: > 100 µM
TGI [16]: 56.6 µM
